Data as given in paper PMC12686126, “LL‐37 Inhibits TMPRSS2‐Mediated S2' Site Cleavage and SARS‐CoV‐2 Infection but Not Omicron Variants” (Cell Proliferation, 2025).

Legend:
[1] = system: SARS‐CoV‐2^N764K spike pseudovirus; format: cell-based
SARS‐CoV‐2 spike = format: cell-based
[2] = system: spike with N764K mutation; format: cell-based, SARS‐CoV‐2
[3] = system: spike with D796Y mutation; format: cell-based, SARS‐CoV‐2
[4] = system: spike with N969K mutation; format: cell-based, SARS‐CoV‐2
[5] = system: S2 subunit with D796Y mutation; format: binding, SARS‐CoV‐2
[6] = system: S2 subunit with N969K mutation; format: binding, SARS‐CoV‐2
[7] = system: SARS‐CoV‐2 spike S2 subunit; format: cell-based
[8] = system: spike with N764K mutation; format: cell-based, SARS‐CoV‐2; remark: listed apart in the source
[9] = system: SARS‐CoV‐2 spike pseudovirus; format: cell-based

Sequence: LLGDFFRKSKEKIGKEFKRIVQRIKDFLRNLVPRTES [LL‐37]
- reduction of RLU induced by SARS‐CoV‐2^N764K [1]: did not significantly reduce
- cell–cell fusion activity after LL‐37 pretreatment (SARS‐CoV‐2 spike): significantly lower cell–cell fusion activity
- cell–cell fusion activity after LL‐37 pretreatment [2]: not the spike‐expressing cells with N764K mutation
- cell–cell fusion activity after LL‐37 pretreatment [3]: significantly lower cell–cell fusion activity
- cell–cell fusion activity after LL‐37 pretreatment [4]: significantly lower cell–cell fusion activity
- binding of S2 subunit to immobilised LL‐37 [5]: no difference or even enhanced binding
- binding of S2 subunit to immobilised LL‐37 [6]: no difference or even enhanced binding
- effect on polybasic cleavage site (S1/S2 boundary) [7]: excluded the effect of LL‐37 on the polybasic cleavage site
- generation of S2' fragment [8]: did not significantly reduce
- inhibition of RLU only caused by overexpression of TMPRSS2 [9]: about 70%
- inhibition of pseudovirus entry into 293T‐A2T2 cells [9]: 52%
